Here are results for 46 substances from US20250320496A1, “MODULATION OF ABCB11 GENE TRANSCRIPTION USING ANTISENSE OLIGONUCLEOTIDES TARGETING REGULATORY RNAS” (CAMP4 Therapeutics Corporation, priority 2022, published 2025).

Strand notation (5' to 3'): a small letter for the sugar, then the base; units joined by * are phosphorothioate-linked, units joined directly phosphodiester-linked; [ ] holds rarer units or linkages, { } end groups; capitals alone tell only the bases. e = 2'-O-(2-methoxyethyl) (MOE); l = locked nucleic acid (LNA); [5mC] = 5-methylcytosine; d = 2'-deoxy (DNA)

The test system of the data set is human ABCB11 mRNA. Put plainly: ASO treatment of primary human hepatocytes (PHH), ABCB11 mRNA by RT-qPCR normalized to B2M. The class given is cell-based. Conditions: for ABCB11 mRNA FC (5 μM ASO vs. UNT) / ABCB11 FC mRNA (5 μM ASO vs. untreated): primary human hepatocytes; for ABCB11 mRNA FC (5 μM ASO vs. UNT): normalized to untreated PHHs (UNT); for ABCB11 FC mRNA (5 μM ASO vs. untreated): 5 μM ASO with PO-modifications, normalized to untreated hepatocytes. The gist of the method: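 ABCB11 mRNA was quantified by Taqman RT-qPCR relative to B2M and expressed as fold over untreated cells. Cells were cryopreserved primary human hepatocytes given ASO in Matrigel-supplemented medium 4 h after plating, at 1.25, 2.5, 5 or 10 μM (5 μM for screening), and harvested after 72 hrs.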
A general note: Real-time PCR tracks product formation cycle by cycle.

As to “CO-6669 (antisense eG*eT*eT*eT*eA*eG*eT*eT*eG*eA*e[5mC]*eT*eG*e[5mC]*eA*eG*eA*eG*eG*eG)”, the “ABCB11 mRNA FC (5 μM ASO vs. UNT)” value turned out to be 1.291 fold change.
“CO-7187: derivative ASO with additional chemical modifications based on parent ASO CO-4535 (antisense eT*eG*eG*e[5mC]*lG*dT*dT*dA*lT*dT*dA*dA*lT*dT*d[5mC]*eT*lA*e[5mC]*eA*eG)”: the “ABCB11 mRNA FC (5 μM ASO vs. UNT)” value is given as 1.544 fold change.
For the substance “CO-4485 (antisense eG*eT*e[5mC]*eA*eA*eG*eA*eT*e[5mC]*e[5mC]*e[5mC]*e[5mC]*eG*eA*eA*eG*eT*eT*eG*eA)”, the “ABCB11 mRNA FC (5 μM ASO vs. UNT)” value is 1.194 fold change.
Take “CO-6998 (antisense eG*eT*eG*lA*eG*lG*e[5mC]*lA*eT*l[5mC]*eA*lGeG*lT*eA*lA*eG*lT*eT*e[5mC])”: the “ABCB11 mRNA FC (5 μM ASO vs. UNT)” value is on record as 1.246 fold change.
As to “CO-7167 (antisense eG*eG*e[5mC]*eG*eT*eT*eA*eT*eT*eA*eA*eT*eT*e[5mC]*eT*eA*e[5mC]*eA*eG*eA)”, the “ABCB11 mRNA FC (5 μM ASO vs. UNT)” value worked out at 1.403 fold change.
In the case of “CO-12748 (antisense eG*eTeGeAeGeGe[5mC]*eA*eT*e[5mC]*eA*eG*eG*eTeAeAeGeTeT*e[5mC])”, the “ABCB11 FC mRNA (5 μM ASO vs. untreated)” value is listed as 0.91 fold change.
Consider “CO-4036 (antisense eG*e[5mC]*eA*eA*eA*eT*eA*eG*eA*eT*eA*eA*eT*eG*eT*eT*e[5mC]*eT*eT*eG)”, for which the “ABCB11 mRNA FC (5 μM ASO vs. UNT)” value stood at 1.235 fold change.
Turning to “CO-7057 (antisense eA*e[5mC]*eT*eG*e[5mC]*eT*e[5mC]*eA*e[5mC]*e[5mC]*e[5mC]*e[5mC]*e[5mC]*e[5mC]*eT*e[5mC]*eA*e[5mC]*e[5mC]*eT)”, the “ABCB11 mRNA FC (5 μM ASO vs. UNT)” value worked out at 1.145 fold change.
Regarding “CO-7205 (eT*eT*eG*eG*e[5mC]*dG*dT*dT*eA*dT*dT*dA*dA*eT*dT*d[5mC]*dT*eA*e[5mC]*eA*eG*eA; antisense)”, the “ABCB11 mRNA FC (5 μM ASO vs. UNT)” value is listed as 1.278 fold change.
Still for that read-out and setting: the same measure for “CO-7201 (eA*eG*eG*eT*eG*dG*dA*eG*d[5mC]*dA*eA*dA*d[5mC]*eT*dA*dG*eG*d[5mC]*dA*e[5mC]*eT*eG*eA*eG; antisense)”: 1.253 fold change.
For “CO-4046 (antisense eG*eG*eG*eAeA*eA*eG*eT*eT*eT*eA*eA*eA*eGeGeT*eA*eT*eT*eT)”, the “ABCB11 mRNA FC (5 μM ASO vs. UNT)” value is listed as 1.035 fold change.
Turning to “CO-7062 (eT*e[5mC]*lT*eG*lG*eA*lA*eA*lA*eT*lA*eA*lT*eG*l[5mC]*e[5mC]*lT*eT*eT*e[5mC]; antisense)”, the “ABCB11 mRNA FC (5 μM ASO vs. UNT)” value amounted to 1.218 fold change.
Still for that read-out and setting: the same measure for “CO-4050 (antisense e[5mC]*eA*eA*eA*eT*eG*eT*eT*e[5mC]*eT*eT*eT*eT*eA*eG*eG*eG*eT*eA*eT)”: 0.968 fold change.
With “CO-12756 (antisense eG*eTeG*eAeG*eGe[5mC]*eAeT*e[5mC]eA*eGeG*eTeA*eAeG*eTeT*e[5mC])”, the “ABCB11 FC mRNA (5 μM ASO vs. untreated)” value was 1.33 fold change.
In the case of “CO-4037 (antisense eG*eG*eG*eA*e[5mC]*eA*eT*eT*eG*eA*eT*e[5mC]*e[5mC]*eT*eT*eA*eG*eG*e[5mC]*eA)”, the “ABCB11 mRNA FC (5 μM ASO vs. UNT)” value was found to be 0.697 fold change.
Still for that read-out and setting: the same measure for “CO-4488 (antisense eA*eA*e[5mC]*eA*eT*eG*eT*e[5mC]*eA*eG*eA*e[5mC]*eA*eG*eT*eA*eG*eT*eT*e[5mC])”: 1.084 fold change; for “CO-4496 (antisense eG*eT*eA*e[5mC]*eT*eA*eG*eA*e[5mC]*eT*e[5mC]*eT*eG*e[5mC]*e[5mC]*eT*eG*eT*eG*eT)”: 0.984 fold change.
The same measure, in the same setting: the same measure for “CO-7070 (e[5mC]*eA*eT*eT*lT*dA*dG*dA*lG*dA*d[5mC]*dA*lA*dA*dG*eA*lA*eT*e[5mC]*eG; antisense)”: 1.044 fold change.
Still for that read-out and setting: the same measure for “CO-7168 (antisense eT*eG*eG*e[5mC]*eG*dT*dT*dA*dT*dT*dA*dA*dT*dT*d[5mC]*eT*eA*e[5mC]*eA*eG)”: 1.301 fold change.
As for “CO-7035 (antisense e[5mC]*eA*eT*eT*eT*dA*dG*dA*dG*dA*d[5mC]*dA*dA*dA*dG*eA*eA*eT*e[5mC]*eG)”, the “ABCB11 mRNA FC (5 μM ASO vs. UNT)” value is reported as 1.047 fold change.
On the same count and under the same terms, the same measure for “CO-4492 (antisense eG*eA*eT*eT*eT*eA*eA*eA*eG*eG*eA*e[5mC]*eT*eG*e[5mC]*eA*eT*eG*eG*e[5mC])”: 1.192 fold change; for “CO-7032 (antisense eA*e[5mC]*eA*eA*eA*eG*eA*eA*eT*e[5mC]*eG*e[5mC]*eT*eG*eT*eG*eG*e[5mC]*eA*eG)”: 1.093 fold change; for “CO-7179: derivative ASO with additional chemical modifications based on parent ASO CO-4529 (antisense eG*eT*lG*eG*lA*eG*l[5mC]*eA*lA*eA*l[5mC]*eT*lA*eG*lG*e[5mC]*lA*e[5mC]*eT*eG)”: 2.344 fold change.
Consider “CO-4506 (antisense eT*eG*e[5mC]*eA*eT*eT*eG*e[5mC]*eA*eT*eG*eT*eT*eG*eA*eG*e[5mC]*eT*eG*eG)”, for which the “ABCB11 mRNA FC (5 μM ASO vs. UNT)” value was 1.169 fold change.
Still for that read-out and setting: the same measure for “CO-7089 (eA*e[5mC]*e[5mC]*l[5mC]*e[5mC]*d[5mC]*d[5mC]*lT*d[5mC]*dA*d[5mC]*l[5mC]*dT*dT*dG*lG*eT*eT*e[5mC]*e[5mC]; antisense)”: 1.249 fold change; for “CO-7181: derivative ASO with additional chemical modifications based on parent ASO CO-4529 (antisense eG*eT*eG*eG*lA*eG*e[5mC]*eA*lA*eA*e[5mC]*eT*lA*eG*eG*e[5mC]*lA*e[5mC]*eT*eG)”: 1.603 fold change.
Turning to “CO-7003 (antisense eG*eT*eG*eA*eG*lG*e[5mC]*eA*eT*e[5mC]*lA*eG*eG*eT*eA*lA*eG*eT*eT*e[5mC])”, the “ABCB11 mRNA FC (5 μM ASO vs. UNT)” value is on record as 1.066 fold change.
On to “CO-11226 (antisense eG*eT*lGeG*eA*lG*e[5mC]*eAlA*eA*e[5mC]*lT*eAeG*lG*e[5mC]*eA*l[5mC]eT*eG)”, for which the “ABCB11 FC mRNA (5 μM ASO vs. untreated)” value is recorded as 2.31 fold change.
As for “CO-11231 (antisense eG*eT*lGeG*eA*lGe[5mC]*eA*lAeA*e[5mC]*lTeA*eG*lGe[5mC]*eA*l[5mC]eT*eG)”, the “ABCB11 FC mRNA (5 μM ASO vs. untreated)” value turned out to be 1.85 fold change.
On to “CO-4528 (antisense e[5mC]*eT*eG*eG*eG*eA*eT*eA*eG*eG*eG*eT*eG*eG*eA*eT*e[5mC]*eT*eA*e[5mC])”, for which the “ABCB11 mRNA FC (5 μM ASO vs. UNT)” value was 0.883 fold change.
Consider “CO-11221 (antisense eG*eTlG*eGlA*eGl[5mC]*eAlA*eAl[5mC]*eTlA*eGlG*e[5mC]lA*e[5mC]eT*eG)”, for which the “ABCB11 FC mRNA (5 μM ASO vs. untreated)” value is given as 2.00 fold change.
Regarding “CO-6673 (antisense eG*eA*eA*eG*eG*dA*d[5mC]*dA*d[5mC]*dA*dA*dT*dT*dT*d[5mC]*eT*eG*eT*eA*eG)”, the “ABCB11 mRNA FC (5 μM ASO vs. UNT)” value is recorded as 1.313 fold change.
As for “CO-6967 (antisense eG*eA*eT*eG*eT*eA*eG*eA*eT*eG*eA*eA*eT*eG*eG*e[5mC]*eA*eA*eG*eG)”, the “ABCB11 mRNA FC (5 μM ASO vs. UNT)” value is 1.405 fold change.
“CO-11198 (antisense eT*eG*eT*eT*eTeTeG*e[5mC]*eT*eT*eG*eG*eT*e[5mC]eAeA*eG*eA*eG*eG)”: the “ABCB11 FC mRNA (5 μM ASO vs. untreated)” value is recorded as 0.97 fold change.
As to “CO-7036 (antisense eG*eT*eA*e[5mC]*eA*eT*eT*eT*eA*eG*eA*eG*eA*e[5mC]*eA*eA*eA*eG*eA*eA)”, the “ABCB11 mRNA FC (5 μM ASO vs. UNT)” value stood at 1.129 fold change.
In the case of “CO-4017 (antisense e[5mC]*eT*eG*e[5mC]*eT*e[5mC]*eA*eA*eA*eG*eT*eA*eA*eA*eA*eA*eT*eA*e[5mC]*e[5mC])”, the “ABCB11 mRNA FC (5 μM ASO vs. UNT)” value stood at 1.228 fold change.
Regarding “CO-11213 (antisense eG*eTlGeGlAeGl[5mC]*eA*lA*eA*l[5mC]*eT*lA*eGlGe[5mC]lAe[5mC]eT*eG)”, the “ABCB11 FC mRNA (5 μM ASO vs. untreated)” value is listed as 1.95 fold change.
Regarding “CO-7207 (eT*eT*eT*eG*eG*e[5mC]*eG*dT*dT*dA*dT*dT*dA*dA*dT*dT*d[5mC]*eT*eA*e[5mC]*eA*eG*eA*eG; antisense)”, the “ABCB11 mRNA FC (5 μM ASO vs. UNT)” value stood at 1.221 fold change.
On to “CO-6982 (antisense eA*eA*eG*eA*e[5mC]*eA*eG*eA*eA*eG*eT*eG*eA*eG*eG*e[5mC]*eA*eT*e[5mC]*eA)”, for which the “ABCB11 mRNA FC (5 μM ASO vs. UNT)” value came to 0.976 fold change.
Take “CO-11206 (antisense eT*eGeT*eT*eTeT*eG*e[5mC]eT*eT*eGeG*eT*e[5mC]eA*eA*eGeA*eG*eG)”: the “ABCB11 FC mRNA (5 μM ASO vs. untreated)” value is 1.02 fold change.
Regarding “CO-12749 (antisense eG*eT*eGeA*eG*eG*e[5mC]*eAeT*e[5mC]*eA*eG*eGeT*eA*eA*eG*eTeT*e[5mC])”, the “ABCB11 FC mRNA (5 μM ASO vs. untreated)” value came to 0.95 fold change.
In the case of “CO-11224 (antisense eG*eT*lGeGeAlGe[5mC]*eA*lA*eA*e[5mC]*lT*eA*eGlGe[5mC]eAl[5mC]*eT*eG)”, the “ABCB11 FC mRNA (5 μM ASO vs. untreated)” value was 1.88 fold change.
“CO-4527 (antisense eG*eA*eG*e[5mC]*eA*eT*e[5mC]*eA*eG*eG*eT*eA*e[5mC]*e[5mC]*eA*eT*eG*eA*e[5mC]*eA)”: the “ABCB11 mRNA FC (5 μM ASO vs. UNT)” value was determined as 0.97 fold change.
Consider “CO-7005 (antisense eG*eT*eG*eG*eA*eT*dG*dT*dA*dG*dA*dT*dG*dA*dA*dT*eG*eG*e[5mC]*eA*eA*eG)”, for which the “ABCB11 mRNA FC (5 μM ASO vs. UNT)” value worked out at 1.257 fold change.
The same measure, in the same setting: the same measure for “CO-4035 (antisense eG*eT*eT*e[5mC]*eA*eG*eT*eG*e[5mC]*eT*eT*eT*eA*eG*eA*eA*eT*eG*eA*eT)”: 0.926 fold change.
On to “CO-3998: ASO targeting the paRNA regRNA RR63 (antisense eA*e[5mC]*e[5mC]*e[5mC]*e[5mC]*e[5mC]*e[5mC]*eT*e[5mC]*eA*e[5mC]*e[5mC]*eT*eT*eG*eGeT*eT*e[5mC]*e[5mC])”, for which the “ABCB11 mRNA FC (5 μM ASO vs. UNT)” value is recorded as 1.319 fold change. In addition, for the setting “PHHs, Day 3, normalized to untreated PHHs”, the “upregulation of ABCB11 mRNA” value is listed as “approximately 1.5 fold”.
